# Patent US20260232767A1, “INTERLEUKIN-23 RECEPTOR ANTAGONIST PEPTIDES FOR USE IN THE TREATMENT OF PSORIASIS” (Janssen Pharmaceutica NV, priority 2023, published 2026)
# System: subjects with moderate-to-severe plaque psoriasis
# Assay: PSSD symptom and sign scores, Example 2
# Format: in vivo, human
# Settings: for Change from Baseline in PSSD Sign Score, LSMean / Change from Baseline in PSSD Symptom Score, LSMean: MMRM
compound,measurement,setting,value
"CC(=O)NCCCC[C@@H]1NC(=O)[C@H](Cc2c[nH]c3c(C)cccc23)NC(=O)[C@H]([C@@H](C)O)NC(=O)[C@H](CC(N)=O)NC(=O)[C@@H](NC(C)=O)C(C)(C)SSC(C)(C)[C@@H](C(=O)N[C@@H](Cc2ccc(OCCN)cc2)C(=O)N[C@@H](Cc2ccc3ccccc3c2)C(=O)NC2(C(=O)N[C@@H](CCC(=O)O)C(=O)N[C@@H](CC(N)=O)C(=O)N[C@@H](Cc3cccnc3)C(=O)N(C)CC(N)=O)CCOCC2)NC1=O [IL-23 receptor antagonist peptide, Ac-[Pen]*-N-T-[W(7-Me)]-[Lys(Ac)]-[Pen]*-Phe[4-(2-aminoethoxy)]-[2-Nal]-[THP]-E-N-[3-Pal]-Sarc-NH2 (*[Pen]-[Pen]* formdisulfidebond)]","Change from Baseline in PSSD Symptom Score, Mean","Week 32, 100 mg QD",−28.0
same,"Change from Baseline in PSSD Symptom Score, Median","Week 32, 100 mg QD",−25.0
same,Subjects Achieving PSSD Sign Score 0 (%),"Week 32, 100 mg QD, Baseline Sign Score ≥1, N=43",(14.0%)
same,Subjects Achieving PSSD Symptom Score 0 (%),"Week 32, 100 mg QD, Baseline Symptom Score ≥1, N=43",(18.6%)
same,"Change from Baseline in PSSD Sign Score, LSMean","Week 32, 100 mg QD",−45.8
same,"Change from Baseline in PSSD Symptom Score, LSMean","Week 32, 100 mg QD",−36.4
same,"Change from Baseline in PSSD Sign Score, Mean","Week 32, Placebo → 100 mg QD",−42.3
same,"Change from Baseline in PSSD Sign Score, Median","Week 32, Placebo → 100 mg QD",−45.0
same,"Change from Baseline in PSSD Symptom Score, Mean","Week 32, Placebo → 100 mg QD",−31.9
same,"Change from Baseline in PSSD Symptom Score, Median","Week 32, Placebo → 100 mg QD",−36.0
same,Subjects Achieving PSSD Sign Score 0 (%),"Week 32, Placebo → 100 mg QD, Baseline Sign Score ≥1, crossed-over subjects only",(17.1%)
same,Subjects Achieving PSSD Symptom Score 0 (%),"Week 32, Placebo → 100 mg QD, Baseline Symptom Score ≥1, crossed-over subjects only",(20.0%)
same,"Change from Baseline in PSSD Sign Score, LSMean","Week 32, Placebo → 100 mg QD",−41.8
same,"Change from Baseline in PSSD Symptom Score, LSMean","Week 32, Placebo → 100 mg QD",−33.9
same,"Change from Baseline in PSSD Sign Score, Mean","Week 40, 25 mg BID",−34.1
same,"Change from Baseline in PSSD Sign Score, Median","Week 40, 25 mg BID",−34.0
same,"Change from Baseline in PSSD Symptom Score, Mean","Week 40, 25 mg BID",−30.0
same,"Change from Baseline in PSSD Symptom Score, Median","Week 40, 25 mg BID",−32.0
same,Subjects Achieving PSSD Sign Score 0 (%),"Week 40, 25 mg BID, Baseline Sign Score ≥1, N=41",(4.9%)
same,Subjects Achieving PSSD Symptom Score 0 (%),"Week 40, 25 mg BID, Baseline Symptom Score ≥1, N=41",(9.8%)
same,"Change from Baseline in PSSD Sign Score, LSMean","Week 40, 25 mg BID",−34.9
same,"Change from Baseline in PSSD Symptom Score, LSMean","Week 40, 25 mg BID",−30.5
same,"Change from Baseline in PSSD Sign Score, Mean","Week 40, 25 mg QD",−36.9
same,"Change from Baseline in PSSD Sign Score, Median","Week 40, 25 mg QD",−36.0
same,"Change from Baseline in PSSD Symptom Score, Mean","Week 40, 25 mg QD",−33.9
same,"Change from Baseline in PSSD Symptom Score, Median","Week 40, 25 mg QD",−35.0
same,Subjects Achieving PSSD Sign Score 0 (%),"Week 40, 25 mg QD, Baseline Sign Score ≥1, N=43",(11.6%)
same,Subjects Achieving PSSD Symptom Score 0 (%),"Week 40, 25 mg QD, Baseline Symptom Score ≥1, N=43",(20.9%)
same,"Change from Baseline in PSSD Sign Score, LSMean","Week 40, 25 mg QD",−29.4
same,"Change from Baseline in PSSD Symptom Score, LSMean","Week 40, 25 mg QD",−25.9
same,"Change from Baseline in PSSD Sign Score, Mean","Week 40, 50 mg QD",−39.6
same,"Change from Baseline in PSSD Sign Score, Median","Week 40, 50 mg QD",−42.0
same,"Change from Baseline in PSSD Symptom Score, Mean","Week 40, 50 mg QD",−34.9
same,"Change from Baseline in PSSD Symptom Score, Median","Week 40, 50 mg QD",−32.0
same,Subjects Achieving PSSD Sign Score 0 (%),"Week 40, 50 mg QD, Baseline Sign Score ≥1, N=43",(9.3%)
same,Subjects Achieving PSSD Symptom Score 0 (%),"Week 40, 50 mg QD, Baseline Symptom Score ≥1, N=42",(23.8%)
same,"Change from Baseline in PSSD Sign Score, LSMean","Week 40, 50 mg QD",−39.5
same,"Change from Baseline in PSSD Symptom Score, LSMean","Week 40, 50 mg QD",−32.7
same,"Change from Baseline in PSSD Sign Score, Mean","Week 40, 100 mg BID",−52.4
same,"Change from Baseline in PSSD Sign Score, Median","Week 40, 100 mg BID",−54.5
same,"Change from Baseline in PSSD Symptom Score, Mean","Week 40, 100 mg BID",−47.5
same,"Change from Baseline in PSSD Symptom Score, Median","Week 40, 100 mg BID",−49.5
same,Subjects Achieving PSSD Sign Score 0 (%),"Week 40, 100 mg BID, Baseline Sign Score ≥1, N=42",(19.0%)
same,Subjects Achieving PSSD Symptom Score 0 (%),"Week 40, 100 mg BID, Baseline Symptom Score ≥1, N=42",(28.6%)
same,"Change from Baseline in PSSD Sign Score, LSMean","Week 40, 100 mg BID",−51.4
same,"Change from Baseline in PSSD Symptom Score, LSMean","Week 40, 100 mg BID",−43.5
same,"Change from Baseline in PSSD Sign Score, Mean","Week 40, 100 mg QD",−42.4
same,"Change from Baseline in PSSD Sign Score, Median","Week 40, 100 mg QD",−43.0
same,"Change from Baseline in PSSD Symptom Score, Mean","Week 40, 100 mg QD",−28.2
same,"Change from Baseline in PSSD Symptom Score, Median","Week 40, 100 mg QD",−24.0
same,Subjects Achieving PSSD Sign Score 0 (%),"Week 40, 100 mg QD, Baseline Sign Score ≥1, N=43",(18.6%)
same,Subjects Achieving PSSD Symptom Score 0 (%),"Week 40, 100 mg QD, Baseline Symptom Score ≥1, N=43",(18.6%)
same,"Change from Baseline in PSSD Sign Score, LSMean","Week 40, 100 mg QD",−45.6
same,"Change from Baseline in PSSD Symptom Score, LSMean","Week 40, 100 mg QD",−36.1
same,"Change from Baseline in PSSD Sign Score, Mean","Week 40, Placebo → 100 mg QD",−36.6
same,"Change from Baseline in PSSD Sign Score, Median","Week 40, Placebo → 100 mg QD",−48.5
same,"Change from Baseline in PSSD Symptom Score, Mean","Week 40, Placebo → 100 mg QD",−23.8
same,"Change from Baseline in PSSD Symptom Score, Median","Week 40, Placebo → 100 mg QD",−24.0
same,Subjects Achieving PSSD Sign Score 0 (%),"Week 40, Placebo → 100 mg QD, Baseline Sign Score ≥1, crossed-over subjects only",(14.3%)
same,Subjects Achieving PSSD Symptom Score 0 (%),"Week 40, Placebo → 100 mg QD, Baseline Symptom Score ≥1, crossed-over subjects only",(25.7%)
same,"Change from Baseline in PSSD Sign Score, LSMean","Week 40, Placebo → 100 mg QD",−36.9
same,"Change from Baseline in PSSD Symptom Score, LSMean","Week 40, Placebo → 100 mg QD",−27.0
same,"Change from Baseline in PSSD Sign Score, Mean","Week 52, 25 mg BID",−36.6
same,"Change from Baseline in PSSD Sign Score, Median","Week 52, 25 mg BID",−38.5
same,"Change from Baseline in PSSD Symptom Score, Mean","Week 52, 25 mg BID",−31.2
same,"Change from Baseline in PSSD Symptom Score, Median","Week 52, 25 mg BID",−27.0
same,Subjects Achieving PSSD Sign Score 0 (%),"Week 52, 25 mg BID, Baseline Sign Score ≥1, N=41",(12.2%)
same,Subjects Achieving PSSD Symptom Score 0 (%),"Week 52, 25 mg BID, Baseline Symptom Score ≥1, N=41",(17.1%)
same,"Change from Baseline in PSSD Sign Score, LSMean","Week 52, 25 mg BID",−37.2
same,"Change from Baseline in PSSD Symptom Score, LSMean","Week 52, 25 mg BID",−31.4
same,"Change from Baseline in PSSD Sign Score, Mean","Week 52, 25 mg QD",−35.2
same,"Change from Baseline in PSSD Sign Score, Median","Week 52, 25 mg QD",−32.5
same,"Change from Baseline in PSSD Symptom Score, Mean","Week 52, 25 mg QD",−30.1
same,"Change from Baseline in PSSD Symptom Score, Median","Week 52, 25 mg QD",−35.0
same,Subjects Achieving PSSD Sign Score 0 (%),"Week 52, 25 mg QD, Baseline Sign Score ≥1, N=43",(16.3%)
same,Subjects Achieving PSSD Symptom Score 0 (%),"Week 52, 25 mg QD, Baseline Symptom Score ≥1, N=43",(18.6%)
same,"Change from Baseline in PSSD Sign Score, LSMean","Week 52, 25 mg QD",−27.9
same,"Change from Baseline in PSSD Symptom Score, LSMean","Week 52, 25 mg QD",−22.3
same,"Change from Baseline in PSSD Sign Score, Mean","Week 52, 50 mg QD",−39.2
same,"Change from Baseline in PSSD Sign Score, Median","Week 52, 50 mg QD",−45.0
same,"Change from Baseline in PSSD Symptom Score, Mean","Week 52, 50 mg QD",−35.2
same,"Change from Baseline in PSSD Symptom Score, Median","Week 52, 50 mg QD",−34.0
same,Subjects Achieving PSSD Sign Score 0 (%),"Week 52, 50 mg QD, Baseline Sign Score ≥1, N=43",(11.6%)
same,Subjects Achieving PSSD Symptom Score 0 (%),"Week 52, 50 mg QD, Baseline Symptom Score ≥1, N=42",(21.4%)
same,"Change from Baseline in PSSD Sign Score, LSMean","Week 52, 50 mg QD",−39.0
same,"Change from Baseline in PSSD Symptom Score, LSMean","Week 52, 50 mg QD",−33.0
same,"Change from Baseline in PSSD Sign Score, Mean","Week 52, 100 mg BID",−53.1
same,"Change from Baseline in PSSD Sign Score, Median","Week 52, 100 mg BID",−55.0
same,"Change from Baseline in PSSD Symptom Score, Mean","Week 52, 100 mg BID",−47.7
same,"Change from Baseline in PSSD Symptom Score, Median","Week 52, 100 mg BID",−53.0
same,Subjects Achieving PSSD Sign Score 0 (%),"Week 52, 100 mg BID, Baseline Sign Score ≥1, N=42",(16.7%)
same,Subjects Achieving PSSD Symptom Score 0 (%),"Week 52, 100 mg BID, Baseline Symptom Score ≥1, N=42",(26.2%)
same,"Change from Baseline in PSSD Sign Score, LSMean","Week 52, 100 mg BID",−51.9
same,"Change from Baseline in PSSD Symptom Score, LSMean","Week 52, 100 mg BID",−44.0
same,"Change from Baseline in PSSD Sign Score, Mean","Week 52, 100 mg QD",−43.1
same,"Change from Baseline in PSSD Sign Score, Median","Week 52, 100 mg QD",−43.0
same,"Change from Baseline in PSSD Symptom Score, Mean","Week 52, 100 mg QD",−29.4
same,"Change from Baseline in PSSD Symptom Score, Median","Week 52, 100 mg QD",−28.0
same,Subjects Achieving PSSD Sign Score 0 (%),"Week 52, 100 mg QD, Baseline Sign Score ≥1, N=43",(14.0%)
same,Subjects Achieving PSSD Symptom Score 0 (%),"Week 52, 100 mg QD, Baseline Symptom Score ≥1, N=43",(30.2%)
same,"Change from Baseline in PSSD Sign Score, LSMean","Week 52, 100 mg QD",−45.8
same,"Change from Baseline in PSSD Symptom Score, LSMean","Week 52, 100 mg QD",−36.5
same,"Change from Baseline in PSSD Sign Score, Mean","Week 52, Placebo → 100 mg QD",−42.8
same,"Change from Baseline in PSSD Sign Score, Median","Week 52, Placebo → 100 mg QD",−48.5
same,"Change from Baseline in PSSD Symptom Score, Mean","Week 52, Placebo → 100 mg QD",−29.5
same,"Change from Baseline in PSSD Symptom Score, Median","Week 52, Placebo → 100 mg QD",−30.0
same,Subjects Achieving PSSD Sign Score 0 (%),"Week 52, Placebo → 100 mg QD, Baseline Sign Score ≥1, crossed-over subjects only",(22.9%)
same,Subjects Achieving PSSD Symptom Score 0 (%),"Week 52, Placebo → 100 mg QD, Baseline Symptom Score ≥1, crossed-over subjects only",(34.3%)
same,"Change from Baseline in PSSD Sign Score, LSMean","Week 52, Placebo → 100 mg QD",−43.1
same,"Change from Baseline in PSSD Symptom Score, LSMean","Week 52, Placebo → 100 mg QD",−32.4
